Laboratory results as given in PubChem BioAssay (NCI).
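Compound exposure: 48 hours, 5 concentrations, 96-well plates. Here, GI50 denotes the concentration required for 50% inhibition of growth. TGI: concentration producing complete growth inhibition.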

How the values were obtained:
Assay in all cases: DTP human tumour cell line panel, 48 h
OVCAR-5 ovarian = tested on: OVCAR-5 ovarian
U251 CNS = tested on: U251 CNS
SF-295 CNS = tested on: SF-295 CNS
OVCAR-3 ovarian = tested on: OVCAR-3 ovarian
MALME-3M melanoma = tested on: MALME-3M melanoma
IGROV1 ovarian = tested on: IGROV1 ovarian
SN12C renal = tested on: SN12C renal
OVCAR-4 ovarian = tested on: OVCAR-4 ovarian
SK-MEL-5 melanoma = tested on: SK-MEL-5 melanoma
MCF7 breast = tested on: MCF7 breast

| SMILES | GI50 (OVCAR-5 ovarian) | TGI (OVCAR-5 ovarian) | GI50 (U251 CNS) | TGI (U251 CNS) | GI50 (SF-295 CNS) | TGI (SF-295 CNS) | GI50 (OVCAR-3 ovarian) | TGI (OVCAR-3 ovarian) | GI50 (MALME-3M melanoma) | TGI (MALME-3M melanoma) | GI50 (IGROV1 ovarian) | TGI (IGROV1 ovarian) | GI50 (SN12C renal) | TGI (SN12C renal) | GI50 (OVCAR-4 ovarian) | TGI (OVCAR-4 ovarian) | GI50 (SK-MEL-5 melanoma) | TGI (SK-MEL-5 melanoma) | GI50 (MCF7 breast) | TGI (MCF7 breast) |
| --- | --- | --- | --- | --- | --- | --- | --- | --- | --- | --- | --- | --- | --- | --- | --- | --- | --- | --- | --- | --- |
| COc1cc(C2C3=C(COC3=O)Nc3c2ccc2c3CCCC2)cc2c1OCO2 (stereo not drawn) | 0.0897 µM | > 100 µM | 0.0418 µM | 14.9 µM | 0.0323 µM | 35.5 µM | 0.0233 µM | 0.0518 µM | 81.5 µM | > 100 µM | 0.0765 µM | > 100 µM | 0.0723 µM | > 100 µM | 0.121 µM | > 100 µM | 0.0381 µM | 0.199 µM | 0.0352 µM | 8.74 µM |
| Cc1[nH]nc2c1N=C(c1ccccc1F)c1cc(C(N)=O)ccc1N2 | 9.61 µM | > 22.3 µM | 0.71 µM | 10.2 µM | 1.28 µM | 24.9 µM | 2.14 µM | > 20.1 µM | 18.3 µM | > 25 µM | 8.29 µM | > 22.5 µM | 4.2 µM | > 25 µM | 5.25 µM | > 25 µM | 3.11 µM | 9.03 µM | 0.592 µM | > 20 µM |
| CC1C[C@]2(C[C@@H](C)C(=O)O2)O[C@@H]2CC3(C)[C@@H]4CCC5C(C)(C)OC(=O)C[C@H]6OO[C@]4(CC[C@]3(C)C12)CC56O (stereo partly drawn) | – | > 100 µM | – | > 100 µM | – | > 100 µM | – | > 100 µM | – | > 100 µM | – | > 100 µM | – | > 100 µM | – | > 100 µM | – | > 100 µM | – | – |
| CCCCN[C@H]1C2C3CC4C5CC(C42)C1(C)C53 (stereo partly drawn) | – | > 100 µM | – | > 100 µM | – | > 100 µM | – | > 100 µM | – | > 100 µM | – | > 100 µM | – | > 100 µM | – | > 100 µM | – | > 100 µM | – | – |
| CC(C)CC(Nc1c(O)ccc2ccccc12)C(=O)O (stereo not drawn) | – | > 100 µM | – | > 100 µM | – | 66.6 µM | – | 62.1 µM | – | 39.2 µM | – | > 100 µM | – | > 100 µM | – | > 100 µM | – | 38.7 µM | – | > 100 µM |
| COc1ccc(-c2cc(-c3cc(Cl)cc(Br)c3O)[nH]c(=O)n2)cc1 | – | – | – | 31.3 µM | – | 32.7 µM | – | 31.5 µM | – | 42.3 µM | – | 52.4 µM | – | 32.3 µM | – | 26.5 µM | – | – | – | – |
| COC(=O)N/N=C(/CCC(=O)Nc1ccc(C)c(C)c1)CC(=O)C(C)(C)C | – | > 100 µM | – | > 100 µM | – | > 100 µM | – | > 100 µM | – | > 100 µM | – | > 100 µM | – | > 100 µM | – | > 100 µM | – | > 100 µM | – | – |
| CCOC(=O)C1=C(C)N(NC(N)=O)C(C)(O)C12CCOC2=O (stereo not drawn) | – | > 100 µM | – | > 100 µM | – | > 100 µM | – | > 100 µM | – | > 100 µM | – | > 100 µM | – | > 100 µM | – | > 100 µM | – | > 100 µM | – | – |
| OCCNCCCOc1ccc2ncnc(Nc3ccc(Oc4cccc(C(F)(F)F)c4)c(Cl)c3)c2c1 | 1.65 µM | 3.24 µM | – | – | 1.79 µM | 3.24 µM | 1.5 µM | 2.92 µM | 1.66 µM | 3.24 µM | 0.584 µM | 2.14 µM | 1.43 µM | 2.83 µM | – | – | – | – | – | – |
| COc1ccc2c(Cl)cc(NC(=O)Nc3c(C)cccc3C)nc2c1 | > 100 µM | > 100 µM | 13.7 µM | 39.2 µM | 4.31 µM | 43.9 µM | 23.5 µM | > 100 µM | 10.2 µM | 58.5 µM | 21.9 µM | > 100 µM | 15.6 µM | > 100 µM | – | – | 18.1 µM | > 100 µM | 56 µM | > 100 µM |
| CCOC(=N)CC(=O)Nc1cccc(Cl)c1 | – | > 100 µM | – | > 100 µM | – | > 100 µM | – | > 100 µM | – | > 100 µM | – | > 100 µM | – | > 100 µM | – | > 100 µM | – | > 100 µM | – | – |
| C/C(=N\NC(=S)N1CC2CCC(CC2)C1)c1cccc(C)n1 | < 0.0001 µM | 15.9 µM | 0.408 µM | 11.8 µM | – | 13.1 µM | 0.00014 µM | 9.75 µM | 0.605 µM | 17.8 µM | – | 13.9 µM | 0.774 µM | 12.6 µM | 0.000172 µM | 16.1 µM | 0.287 µM | 13.7 µM | – | – |
| CC(=O)[CH-]C(=O)c1ccccc1.CC(=O)[CH-]C(=O)c1ccccc1.Cl.[O-]c1ccccn1.[O-]c1ccccn1.[Ti+4] | > 100 µM | > 100 µM | > 100 µM | > 100 µM | 47.6 µM | > 100 µM | > 100 µM | > 100 µM | > 100 µM | > 100 µM | > 100 µM | > 100 µM | > 100 µM | > 100 µM | > 100 µM | > 100 µM | > 100 µM | > 100 µM | – | – |
| COc1cc2c(cc1OC)NC(=O)NC(Cc1ccc3c(c1)OCO3)CC2 (stereo not drawn) | – | > 100 µM | – | – | – | > 100 µM | – | > 100 µM | – | > 100 µM | – | > 100 µM | – | > 100 µM | – | > 100 µM | – | > 100 µM | – | – |
| CC1=C(Cl)C=CP(=O)(OC(C)C)C1 (stereo not drawn) | – | > 100 µM | – | > 100 µM | – | > 100 µM | – | > 100 µM | – | > 100 µM | – | > 100 µM | – | > 100 µM | – | > 100 µM | – | > 100 µM | – | – |
| O=C(CC1(O)C(=O)Nc2ccccc21)c1ccc(O)cc1 (stereo not drawn) | – | > 100 µM | – | > 100 µM | – | > 100 µM | – | > 100 µM | – | > 100 µM | – | > 100 µM | – | > 100 µM | – | > 100 µM | – | > 100 µM | – | – |
| Clc1ccc2nc(-c3ccccc3)nc(Cl)c2c1 | – | > 100 µM | – | > 100 µM | – | > 100 µM | – | > 100 µM | – | 95.1 µM | – | > 100 µM | – | > 100 µM | – | – | – | > 100 µM | – | – |
| CC1=C(C(=O)Nc2ccc([N+](=O)[O-])cc2)C(c2ccc3c(c2)OCO3)C(C(=O)Nc2ccc([N+](=O)[O-])cc2)=C(C)N1 | – | > 100 µM | – | > 100 µM | – | > 100 µM | – | > 100 µM | – | > 100 µM | – | > 100 µM | – | > 100 µM | – | > 100 µM | – | – | – | – |
